Data reported in patent US11667658B2, “Chemical synthesis of the organoarsenical antibiotic arsinothricin” (The Florida International University Board of Trustees, priority 2021, dated 2023).

Test system: PpArsN1, the AST-selective N-acetyltransferase
Experiment: Enzymatic N-acetylation of AST by PpArsN1 (HPLC-ICP-MS)
Format: biochemical, Pseudomonas putida KT2440
Experimental: Enzymatic N-acetylation of AST (1). PpArsN1, the AST-selective N-acetyltransferase from Pseudomonas putida KT2440, was purified. […] The reaction solution was filtered using an Amicon Ultra centrifugal filter with a 3K cutoff membrane (MilliporeSigma), and arsenic species in the filtrate were analyzed by HPLC-ICP-MS.

`C[As](=O)(O)CCC(N)C(=O)O` (centres unmarked) [bAST] was tested, and the “conversion to L-N-Ac-AST by PpArsN1 (in words)” value (PpArsN1/AcCoA, HPLC-ICP-MS (FIG. 23)) was “nearly completely converted”.
With `C[As](=O)(O)CCC(N)C(=O)O` (centres unmarked) [sAST] the “conversion to L-N-Ac-AST by PpArsN1” value (10 μM AST, 0.2 μM PpArsN1, 0.2 mM AcCoA, 37° C., 30 min (FIG. 23)) was 50%.
